Results from patent US9493446B2, “Orexin receptor antagonists which are [ortho bi-(hetero-)aryl]-[2-(meta bi-(hetero-)aryl)-pyrrolidin-1-yl]-methanone derivatives” (Actelion Pharmaceuticals Ltd, priority 2012, dated 2016).
Where two headings read alike, the source gives them in different places.

What was measured:
human orexin-2 receptor = human orexin-2 receptor (Homo sapiens (Human), UniProt O43614); assay: Intracellular calcium measurement (FLIPR), CHO cells expressing human orexin-2 receptor, 3 nM orexin-A; type: cell-based; details: read-out: IC50 OX2
Chain of human orexin-2 receptor (O43614 whole entry): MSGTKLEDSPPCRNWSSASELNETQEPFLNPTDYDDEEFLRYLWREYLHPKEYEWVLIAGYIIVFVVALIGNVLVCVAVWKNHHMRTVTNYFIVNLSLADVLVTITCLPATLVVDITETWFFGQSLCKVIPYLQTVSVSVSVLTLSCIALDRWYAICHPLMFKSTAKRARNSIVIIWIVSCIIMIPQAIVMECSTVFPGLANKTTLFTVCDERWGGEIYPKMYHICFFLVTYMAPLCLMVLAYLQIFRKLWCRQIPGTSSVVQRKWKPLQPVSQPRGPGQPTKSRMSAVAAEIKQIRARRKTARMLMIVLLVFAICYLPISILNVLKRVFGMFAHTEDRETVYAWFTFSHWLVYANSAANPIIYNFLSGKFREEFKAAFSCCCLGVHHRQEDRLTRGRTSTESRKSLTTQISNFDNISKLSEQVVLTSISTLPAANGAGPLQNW
How it was run: (§1)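 HBSS buffer with 0.1% BSA, NaHCO3 and 20 mM HEPES carries both compounds and agonist. Dye: fluo-4 AM (3 μM) with 5 mM probenecid. Compound exposure 120 min; peak signal scored against uninhibited orexin-A response.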

orexin-1 = orexin-1 (Homo sapiens (Human), UniProt O43613); assay: Intracellular calcium measurement (FLIPR), CHO cells expressing human orexin-1 receptor, 3 nM orexin-A; type: cell-based; details: read-out: IC50 OX1
Chain of orexin-1 (O43613 whole entry): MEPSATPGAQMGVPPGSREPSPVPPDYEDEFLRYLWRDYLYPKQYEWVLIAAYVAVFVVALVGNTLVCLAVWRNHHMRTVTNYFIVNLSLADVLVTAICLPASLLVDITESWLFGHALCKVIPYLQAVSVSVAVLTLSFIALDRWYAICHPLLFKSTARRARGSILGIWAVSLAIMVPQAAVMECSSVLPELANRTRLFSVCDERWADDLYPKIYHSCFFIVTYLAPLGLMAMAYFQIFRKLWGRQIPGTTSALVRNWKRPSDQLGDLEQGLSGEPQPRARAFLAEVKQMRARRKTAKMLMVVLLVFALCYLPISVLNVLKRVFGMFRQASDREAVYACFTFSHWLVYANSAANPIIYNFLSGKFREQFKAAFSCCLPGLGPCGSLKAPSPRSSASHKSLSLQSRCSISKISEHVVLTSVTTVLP
How it was run: as §1

[1] = CHO cells expressing human orexin-2 receptor, FLIPR, 3 nM orexin-A, geometric mean if determined several times
[2] = CHO cells expressing human orexin-1 receptor, FLIPR, 3 nM orexin-A, geometric mean if determined several times

| SMILES | IC50 (human orexin-2 receptor; [1]) [nM] | IC50 (orexin-1; [2]) [nM] | IC50 (human orexin-2 receptor) [nM] | IC50 (orexin-1) [nM] |
| --- | --- | --- | --- | --- |
| Cc1cccc(-n2nccn2)c1C(=O)N1CCC[C@H]1c1nc(-c2cccc(Cl)c2C)no1 [compound 98] | 127 | 462 | – | – |
| CCOc1ncccc1-c1noc([C@@H]2CCCN2C(=O)c2cc(OC)c(C)cc2-n2nccn2)n1 [compound 215, {(S)-2-[3-(2-Ethoxy-pyridin-3-yl)-[1,2,4]oxadiazol-5-yl]-pyrrolidin-1-yl}-(5-methoxy-4-methyl-2-[1,2,3]triazol-2-yl-phenyl)-methanone] | 3 | 18 | – | – |
| Cc1cc(-n2nccn2)c(C(=O)N2CCC[C@@]2(C)c2nnc(-c3ccccc3OC(F)(F)F)[nH]2)cc1Cl [compound 545] | – | 4 | 8 | – |
| COc1c(Cl)cccc1-c1nc([C@@H]2CCCN2C(=O)c2cc(Cl)ccc2-n2nccn2)no1 [compound 357] | – | 81 | 17 | – |
| COc1cccc(F)c1-c1noc([C@@H]2CCCN2C(=O)c2cc(C)ccc2-n2nccn2)n1 [compound 72, {(S)-2-[3-(2-Fluoro-6-methoxy-phenyl)-[1,2,4]oxadiazol-5-yl]-pyrrolidin-1-yl}-(5-methyl-2-[1,2,3]triazol-2-yl-phenyl)-methanone] | 57 | 901 | – | – |
| O=C(c1cc(F)ccc1-n1nccn1)N1CCC[C@H]1c1nc(-c2ccccc2OC(F)(F)F)no1 [compound 155, (5-Fluoro-2-[1,2,3]triazol-2-yl-phenyl)-{(S)-2-[3-(2-trifluoromethoxy-phenyl)-[1,2,4]oxadiazol-5-yl]-pyrrolidin-1-yl}-methanone] | 43 | 174 | – | – |
| COc1cc(C(=O)N2CCC[C@H]2c2nc(-c3ccccc3OC)no2)c(-n2nccn2)cc1C [compound 231, (5-Methoxy-4-methyl-2-[1,2,3]triazol-2-yl-phenyl)-{(S)-2-[3-(2-methoxy-phenyl)-[1,2,4]oxadiazol-5-yl]-pyrrolidin-1-yl}-methanone] | 15 | 66 | – | – |
| O=C(c1cc(Cl)ccc1-n1nccn1)N1CCC[C@H]1c1noc(-c2ccccc2OC(F)(F)F)n1 [compound 377] | 15 | 68 | – | – |
| O=C(c1cc(F)ccc1-c1ccn[nH]1)N1CCC[C@H]1c1nc(-c2ccccc2OC(F)(F)F)no1 [compound 167, [5-Fluoro-2-(2H-pyrazol-3-yl)-phenyl]-{(S)-2-[3-(2-trifluoromethoxy-phenyl)-[1,2,4]oxadiazol-5-yl]-pyrrolidin-1-yl}-methanone] | 43 | 114 | – | – |
| Cc1ccc(-n2nccn2)c(C(=O)N2CCC[C@H]2c2nc(-c3cccc(Cl)c3)no2)c1 [compound 18] | 32 | – | – | 91 |
| COc1ccccc1-c1noc([C@@H]2CCCN2C(=O)c2cc(C)c(C)cc2-n2nccn2)n1 [compound 230, (4,5-Dimethyl-2-[1,2,3]triazol-2-yl-phenyl)-{(S)-2-[3-(2-methoxy-phenyl)-[1,2,4]oxadiazol-5-yl]-pyrrolidin-1-yl}-methanone] | 15 | 23 | – | – |
| Cc1ccc(-n2nccn2)c(C(=O)N2CCC[C@@]2(C)c2nc(-c3cccc(Cl)c3C)no2)c1 [Example 541, {(S)-2-[3-(3-Chloro-2-methyl-phenyl)-[1,2,4]oxadiazol-5-yl]-2-methyl-pyrrolidin-1-yl}-(5-methyl-2-[1,2,3]triazol-2-yl-phenyl)-methanone] | 114 | 104 | – | – |
| COc1cc(C(=O)N2CCC[C@H]2c2nc(-c3cccc(F)c3OC)no2)c(-n2nccn2)cc1OC [compound 208, (4,5-Dimethoxy-2-[1,2,3]triazol-2-yl-phenyl)-{(S)-2-[3-(3-fluoro-2-methoxy-phenyl)-[1,2,4]oxadiazol-5-yl]-pyrrolidin-1-yl}-methanone] | 20 | 225 | – | – |
| COc1c(F)cccc1-c1noc([C@@H]2CCCN2C(=O)c2cccc(F)c2-c2ccn[nH]2)n1 [compound 202, {(S)-2-[3-(3-Fluoro-2-methoxy-phenyl)-[1,2,4]oxadiazol-5-yl]-pyrrolidin-1-yl}-[3-fluoro-2-(2H-pyrazol-3-yl)-phenyl]-methanone] | 10 | 53 | – | – |
| COc1c(F)cccc1-c1noc([C@@H]2CCCN2C(=O)c2cccc(Cl)c2-n2nccn2)n1 [compound 297] | 478 | – | – | 690 |

The remaining molecules from weak to strong by IC50 (human orexin-2 receptor; [1]), led by results:

| IC50 (human orexin-2 receptor; [1]) [nM] | IC50 (orexin-1; [2]) [nM] | SMILES | IC50 (human orexin-2 receptor) [nM] | IC50 (orexin-1) [nM] |
| --- | --- | --- | --- | --- |
| 375 | 1140 | CCOc1ccccc1-c1nnc([C@@H]2CCCN2C(=O)c2cc(C)ccc2-n2nccn2)o1 [Example 454, {(S)-2-[5-(2-Ethoxy-phenyl)-[1,3,4]oxadiazol-2-yl]-pyrrolidin-1-yl}-(5-methyl-2-[1,2,3]triazol-2-yl-phenyl)-methanone] | – | – |
| 93 | 354 | COc1c(F)cccc1-c1noc([C@@H]2CCCN2C(=O)c2cccc(C)c2-n2nccn2)n1 [compound 197, {(S)-2-[3-(3-Fluoro-2-methoxy-phenyl)-[1,2,4]oxadiazol-5-yl]-pyrrolidin-1-yl}-(3-methyl-2-[1,2,3]triazol-2-yl-phenyl)-methanone] | – | – |
| 90 | 316 | COc1cc(OC)cc(-c2noc([C@@H]3CCCN3C(=O)c3cc(C)ccc3-n3nccn3)n2)c1 [compound 47, {(S)-2-[3-(3,5-Dimethoxy-phenyl)-[1,2,4]oxadiazol-5-yl]-pyrrolidin-1-yl}-(5-methyl-2-[1,2,3]triazol-2-yl-phenyl)-methanone] | – | – |
| 73 | 99 | COc1ccc(-n2cccn2)c(C(=O)N2CCC[C@H]2c2nc(-c3ccccc3OC(F)(F)F)no2)c1 [compound 157, (5-Methoxy-2-pyrazol-1-yl-phenyl)-{(S)-2-[3-(2-trifluoromethoxy-phenyl)-[1,2,4]oxadiazol-5-yl]-pyrrolidin-1-yl}-methanone] | – | – |
| 69 | 26 | COc1ccccc1-c1nnc([C@@H]2CCCN2C(=O)c2cc(C)c(C)cc2-n2nccn2)[nH]1 [compound 466, (4,5-Dimethyl-2-[1,2,3]triazol-2-yl-phenyl)-{(S)-2-[5-(2-methoxy-phenyl)-4H-[1,2,4]triazol-3-yl]-pyrrolidin-1-yl}-methanone] | – | – |
| 52 | 666 | CCOc1c(F)cccc1-c1noc([C@@H]2CCCN2C(=O)c2ccccc2-n2nccn2)n1 [compound 288, {(S)-2-[3-(2-Ethoxy-3-fluoro-phenyl)-[1,2,4]oxadiazol-5-yl]-pyrrolidin-1-yl}-(2-[1,2,3]triazol-2-yl-phenyl)-methanone] | – | – |
| 39 | 81 | Cc1cc(C)cc(-c2cc([C@@H]3CCCN3C(=O)c3cc(C)ccc3-n3nccn3)on2)c1 [compound 423, {(S)-2-[3-(3,5-Dimethyl-phenyl)-isoxazol-5-yl]-pyrrolidin-1-yl}-(5-methyl-2-[1,2,3]triazol-2-yl-phenyl)-methanone] | – | – |
| 27 | 847 | Cc1ccc(-n2nccn2)c(C(=O)N2CCC[C@H]2c2nnc(-c3cccc(F)c3C)[nH]2)c1 [compound 494, {(S)-2-[5-(3-Fluoro-2-methyl-phenyl)-4H-[1,2,4]triazol-3-yl]-pyrrolidin-1-yl}-(5-methyl-2-[1,2,3]triazol-2-yl-phenyl)-methanone] | – | – |
| 11 | 18 | Cc1ccc(C(=O)N2CCC[C@H]2c2noc(-c3ccccc3OC(F)(F)F)n2)c(-n2nccn2)c1 [compound 374, (4-Methyl-2-[1,2,3]triazol-2-yl-phenyl)-{(S)-2-[5-(2-trifluoromethoxy-phenyl)-[1,2,4]oxadiazol-3-yl]-pyrrolidin-1-yl}-methanone] | – | – |
